# From patent US9949947B2, “Delphinidin for combating melanoma cells” (Sapiotec GmbH, priority 2012, dated 2018)
# Experiments:
# [1] = test system: human melanoma cell line A-375; assay: Induction of apoptosis, sub-G1 peak method (Example 6); assay type: cell-based; settings: A-375, 24 hours; 10-3000 μg/ml delphinidin-SBE-β-CD or 15-120 μM delphinidin Cl; low and higher cell confluence (FIGS. 1, 2a, 2b)
# A-375 cells [2] = assay: Microscopic analysis of cell morphology after 24 hours of treatment; settings: A-375, after 24 hours of treatment, high concentrations (FIG. 4)
# [3] = test system: human dermal microvascular endothelial cells; assay: Cytotoxicity, cell vitality by ATP luminescence assay, endothelial cells (Example 12); assay type: cell-based; settings: 0.1-100 μM (0.1 μM; 3.2 μM; 100 μM), Day 1-Day 4, FIG. 18
# Excerpt: The human dermal microvascular endothelial cells were obtained by the standard method known to those skilled in the art of Hewett and Murray (1993) [Hewett P. W. and Murray J. C. (1993) Immunomagnetic purification of human microvessel endothelial cells using Dynabeads coated monoclonal antibodies to PECAM-1. Eur J Cell Biol 62: 451-454; Hewett P. W. & Murray J. C. (1993) Human microvessel endothelial cells: Isolation, culture and characterization. In Vitro Cell Biol: 823-830].
# [4] = Stability in aqueous 0.9% NaCl solution at 37° C., delphinidin content by HPLC (Example 5); assay type: physicochemical; settings: starting concentration 1.584 mg/ml (complex) or 0.0216 mg/ml (delphinidin)
# Method: To determine the delphinidin chloride content in the delphinidin-containing solutions, a reversed-phase HPLC method was used similar to the one already described above. The following reagents were used in this case: […] The solutions were prepared at room temperature and subsequently stored in the dark at 37° C. in closed vials. […] The table below gives the content determined as a percentage of the starting concentration stated above. The determination of the delphinidin content in the samples was calculated with the aid of the Agilent ChemStation software using the calibration with the external standard described.
# human fibroblasts = assay: Cytotoxicity, cell vitality by ATP luminescence assay, fibroblasts (Example 12); settings: 0.1-100 μM (0.1 μM; 3.2 μM; 100 μM), FIG. 19
# Method: The cells used were primary, even isolated fibroblasts and microvascular endothelial cells from human donor skin.
# To isolate the fibroblasts, the tissue cell structure was dissolved by means of a one-hour incubation with trypsin-EDTA solution. To stop the cell detachment reaction, stop medium was added to the skin. The piece of skin was then swirled twice in PBS resulting in a suspension of fibroblasts. The fibroblasts obtained were centrifuged at 4° C. for 5 min at 100 revolutions per minute and were used after quantification.
# In the experiments according to Example 12, the effect of the substances investigated on the vitality of human fibroblasts and endothelial cells was investigated using the ATP luminescence assay, which is known to those skilled in the art and is briefly summarized below for the sake of completeness.
# By the inhibition of endogenous ATPases, the ATP content liberated by lysis can thus be used as a measure for the number of vital cells. For the quantification, the liberated ATP is coupled to a reaction catalyzed by the enzyme luciferase, in which the ATP-dependent oxidation of the substrate luciferin to oxyluciferin, carbon dioxide, AMP and inorganic phosphate takes place in the presence of Mg^2+, with release of light. […] This is measured in RLU (relative light units), an independent unit which reflects the amount of ATP in the sample. […]
# [5] = Solubility of delphinidin chloride in aqueous cyclodextrin solutions (Example 1); settings: pure water, cyclodextrin concentration 0; excess delphinidin chloride, stirred at 30° C. for 20 h in the dark, filtered 0.22 μm
# [6] = test system: human melanoma cell line A-375; assay: Cell viability test, WST-1 assay (Example 7); assay type: cell-based; settings: A-375, 24 hours; 10-3000 μg/ml delphinidin-SBE-β-CD or 15-120 μM delphinidin Cl; low and higher cell confluence (FIGS. 3a, 3b)
# A-375 cells [7] = assay: Cell viability test in combination with TRAIL (Example 10); assay type: cell-based, human; settings: A-375, 24 hours; complex partner as control
# A-375 cells [8] = assay: Real-time cell analysis (RTCA) in combination with TRAIL, xCELLigence system (Example 11); assay type: cell-based, human; settings: A-375, high cell confluence; TRAIL 0.02 μg/ml, SBE-β-CD 30 or 1000 μg/ml (FIGS. 16 and 17)
# cell line A-375 = assay: Induction of apoptosis in combination with TRAIL, sub-G1 peak method (Example 9); assay type: cell-based, human; settings: A-375, 24 hours; complex partner as control
# Method: The same cell line and method was used in the experiments as in the preceding section II. […] The experiments were carried out in parallel both at low (low cell confluence) and higher cell density (higher cell confluence), of which the results processed graphically are shown in FIGS. 11a (low cell confluence) and 11b (higher cell confluence).
compound,measurement,setting,value
"Oc1cc(O)c2cc(O)c(-c3cc(O)c(O)c(O)c3)[o+]c2c1.[Cl-] [delphinidin Cl, delphinidin chloride]",Induction of apoptosis (sub-G1 peak),[1],significant dose-dependent induction of apoptosis
same,Morphology of the cells under microscopic analysis,A-375 cells [2],globular and/or detached
same,Cytotoxic effects on cell vitality,[3],no significant cytotoxic effects
same,Delphinidin content as a percentage of the starting concentration,[4]; 0 h,100%
same,Delphinidin content as a percentage of the starting concentration,"[4]; 1 h, 37° C. in the dark",8.3%
same,Delphinidin content as a percentage of the starting concentration,"[4]; 2 h, 37° C. in the dark",6.5%
same,Delphinidin content as a percentage of the starting concentration,"[4]; 3 h, 37° C. in the dark",5.6%
same,Delphinidin content as a percentage of the starting concentration,"[4]; 4 h, 37° C. in the dark",5.1%
same,Cytotoxic effects on cell vitality,human fibroblasts,no significant cytotoxic effects
same,"Delphinidin chloride, solubility achievable",[5],70 µg/mL
same,Effect on cell viability (loss of vital cells),[6],loss of vital cells with increasing dose
sulfobutyl ether β-cyclodextrin [SBE-β-CD],Induction of apoptosis (sub-G1 peak),[1],no effect
same,Cell vitality,A-375 cells [7],at control level
same,Intensification of TRAIL sensitivity,A-375 cells [8],No intensification of TRAIL sensitivity
same,Induction of apoptosis (sub-G1 peak),cell line A-375,at control level
same,Effect on cell viability (loss of vital cells),[6],no effect
